From ChEMBL document CHEMBL6177980 (J Med Chem, 2025)
In brackets after ≈: the same amount, converted by molar mass. Activity calls are given as the source filed them. The rule behind the calls is not given here.

Tests used:
[1] = Cmax in fasted Sprague-Dawley rat at 5 mg/kg, iv by LC-MS/MS analysis; assay type: ADME, organism-based; conditions: in vivo
[2] = AUC (0 to t) in fasted Sprague-Dawley rat at 5 mg/kg, iv by LC-MS/MS analysis; assay type: ADME, organism-based; conditions: in vivo
[3] = Cmax in fasted Sprague-Dawley rat at 10 mg/kg, po by LC-MS/MS analysis; assay type: ADME, organism-based; conditions: in vivo
[4] = AUC (0 to t) in fasted Sprague-Dawley rat at 10 mg/kg, po by LC-MS/MS analysis; assay type: ADME, organism-based; conditions: in vivo
[5] = Stability of compound at pH 1.5 assessed as change in purity at 1 mg/ml incubated for 4 hrs by HPLC analysis; assay type: physicochemical; conditions: buffer, pH 1.5, 4 h
[6] = Stability of compound at pH 1.5 assessed as change in purity at 1 mg/ml incubated for 12 hrs by HPLC analysis; assay type: physicochemical; conditions: buffer, pH 1.5, 12 h
[7] = Stability of compound at pH 1.5 assessed as change in purity at 1 mg/ml incubated for 24 hrs by HPLC analysis; assay type: physicochemical; conditions: buffer, pH 1.5, 24 h
[8] = Stability of compound at pH 4.0 assessed as change in purity at 1 mg/ml incubated for 4 hrs by HPLC analysis; assay type: physicochemical; conditions: buffer, pH 4, 4 h
[9] = Stability of compound at pH 4.0 assessed as change in purity at 1 mg/ml incubated for 12 hrs by HPLC analysis; assay type: physicochemical; conditions: buffer, pH 4, 12 h
[10] = Stability of compound at pH 4.0 assessed as change in purity at 1 mg/ml incubated for 24 hrs by HPLC analysis; assay type: physicochemical; conditions: buffer, pH 4, 24 h
[11] = Stability of compound at pH 6.8 assessed as change in purity at 1 mg/ml incubated for 4 hrs by HPLC analysis; assay type: physicochemical; conditions: buffer, pH 6.8, 4 h
[12] = Stability of compound at pH 6.8 assessed as change in purity at 1 mg/ml incubated for 12 hrs by HPLC analysis; assay type: physicochemical; conditions: buffer, pH 6.8, 12 h
[13] = Stability of compound at pH 6.8 assessed as change in purity at 1 mg/ml incubated for 24 hrs by HPLC analysis; assay type: physicochemical; conditions: buffer, pH 6.8, 24 h
[14] = Cmax in fasted Cynomolgus monkey at 2 mg/kg, iv by LC-MS/MS analysis; assay type: ADME, organism-based, Macaca fascicularis; conditions: in vivo
[15] = AUC (0 to t) in fasted Cynomolgus monkey at 2 mg/kg, iv by LC-MS/MS analysis; assay type: ADME, organism-based, Macaca fascicularis; conditions: in vivo
[16] = Half life in fasted Cynomolgus monkey at 2 mg/kg, iv by LC-MS/MS analysis; assay type: ADME, organism-based, Macaca fascicularis; conditions: in vivo
[17] = Cmax in fasted Cynomolgus monkey at 5 mg/kg, po by LC-MS/MS analysis; assay type: ADME, organism-based, Macaca fascicularis; conditions: in vivo
[18] = AUC (0 to t) in fasted Cynomolgus monkey at 5 mg/kg, po by LC-MS/MS analysis; assay type: ADME, organism-based, Macaca fascicularis; conditions: in vivo
[19] = Half life in fasted Cynomolgus monkey at 5 mg/kg, po by LC-MS/MS analysis; assay type: ADME, organism-based, Macaca fascicularis; conditions: in vivo
[20] = Oral bioavailability in fasted Cynomolgus monkey at 5 mg/kg by LC-MS/MS analysis; assay type: ADME, organism-based, Macaca fascicularis; conditions: in vivo
[21] = Stability in SGF assessed as compound degradation measured for 24 hrs by HPLC analysis; assay type: physicochemical; conditions: simulated gastric fluid (SGF), read-out: Drug degradation
[22] = Stability in SIF assessed as compound degradation measured for 24 hrs by HPLC analysis; assay type: physicochemical; conditions: simulated intestinal fluid (SIF), read-out: Drug degradation
[23] = Cmax in fasted Sprague-Dawley rat at 19 mg/kg, po by LC-MS/MS analysis; assay type: ADME, organism-based; conditions: in vivo
[24] = AUC (0 to t) in fasted Sprague-Dawley rat at 19 mg/kg, po by LC-MS/MS analysis; assay type: ADME, organism-based; conditions: in vivo
[25] = Cmax in fasted Sprague-Dawley rat at 16.5 mg/kg, po by LC-MS/MS analysis; assay type: ADME, organism-based; conditions: in vivo
[26] = AUC (0 to t) in fasted Sprague-Dawley rat at 16.5 mg/kg, po by LC-MS/MS analysis; assay type: ADME, organism-based; conditions: in vivo
[27] = Cmax in fasted Sprague-Dawley rat at 20 mg/kg, po by LC-MS/MS analysis; assay type: ADME, organism-based; conditions: in vivo
[28] = AUC (0 to t) in fasted Sprague-Dawley rat at 20 mg/kg, po by LC-MS/MS analysis; assay type: ADME, organism-based; conditions: in vivo
[29] = Oral bioavailability in fasted Cynomolgus monkey administered orally by LC-MS/MS analysis; assay type: ADME, organism-based, Macaca fascicularis; conditions: in vivo
[30] = Aqueous solubility of compound; assay type: physicochemical; conditions: aqueous medium
[31] = Half life in fasted Cynomolgus monkey administered orally by LC-MS/MS analysis; assay type: ADME, Macaca fascicularis; conditions: in vivo, route po
[32] = test system: Mammarenavirus choriomeningitidis; assay: In vivo antiviral activity against LCMV infected in C57BL/6-Prf1tm1Sdz/J mouse assessed as improvement in body weight loss at 300 mg/kg, po qd treated for 7 days; assay type: functional, organism-based; conditions: time 7.0 day
[33] = test system: Mammarenavirus choriomeningitidis; assay: In vivo antiviral activity against LCMV infected in C57BL/6-Prf1tm1Sdz/J mouse assessed as animal survival at 300 mg/kg, po qd treated for 7 days; assay type: functional, organism-based; conditions: time 7.0 day
[34] = test system: Mammarenavirus choriomeningitidis; assay: In vivo antiviral activity against LCMV infected in C57BL/6-Prf1tm1Sdz/J mouse assessed as improvement in platelet count at 300 mg/kg, po qd treated for 7 days; assay type: functional, organism-based; conditions: time 7.0 day
[35] = test system: Mammarenavirus choriomeningitidis; assay: In vivo antiviral activity against LCMV infected in C57BL/6-Prf1tm1Sdz/J mouse assessed as improvement in lymphocytes percentage at 300 mg/kg, po qd treated for 7 days; assay type: functional, organism-based; conditions: time 7.0 day
[36] = Cmax in fasted Sprague-Dawley rat at 27 mg/kg, po by LC-MS/MS analysis; assay type: ADME, organism-based; conditions: in vivo
[37] = AUC (0 to t) in fasted Sprague-Dawley rat at 27 mg/kg, po by LC-MS/MS analysis; assay type: ADME, organism-based; conditions: in vivo

## O=c1ccn([C@@H]2O[C@](F)(CO)[C@@H](O)[C@H]2O)c(=O)[nH]1
[1]
  Cmax: 2900 ng/mL
[2]
  AUC(0-t): 7810 ng·h/mL
[3]
  Cmax: 1740 ng/mL
[4]
  AUC(0-t): 13000 ng·h/mL
[5]
  Activity: -27.9%
[6]
  Activity: -64.4%
[7]
  Activity: -86.9%
[8]
  Activity: -8.8%
[9]
  Activity: -24.9%
[10]
  Activity: -43.5%
[11]
  Activity: -18.1%
[12]
  Activity: -44.8%
[13]
  Activity: -67.1%
[14]
  Cmax: 2530 ng/mL
[15]
  AUC(0-t): 4830 ng·h/mL
[16]
  half-life: 4.34 h
[17]
  Cmax: 2850 ng/mL
[18]
  AUC(0-t): 11600 ng·h/mL
[19]
  half-life: 5.13 h
[20]
  bioavailability: 62.9%
[21]
  degraded at 24 h: > 80%
[22]
  degraded at 24 h: > 80%

## CC(C)C(=O)OC[C@@]1(F)O[C@@H](n2ccc(=O)n(COC(=O)c3cccnc3)c2=O)[C@@H]2OC(=O)O[C@@H]21
[23]
  Cmax: 1200 ng/mL
[24]
  AUC(0-t): 9450 ng·h/mL
[5]
  Activity: -2.1%
[6]
  Activity: -5.5%
[7]
  Activity: -9.5%
[8]
  Activity: -1.9%
[9]
  Activity: -5.4%
[10]
  Activity: -10.5%
[11]
  Activity: -45%
[12]
  Activity: -76%
[13]
  Activity: -88.3%

## CCOC(=O)OCn1c(=O)ccn([C@@H]2O[C@](F)(COC(=O)C(C)C)[C@@H](O)[C@H]2O)c1=O
[25]
  Cmax: 2440 ng/mL
[26]
  AUC(0-t): 15800 ng·h/mL

## CC(=O)OC[C@@]1(F)O[C@@H](n2ccc(=O)n(COC(=O)c3cccnc3)c2=O)[C@H](OC(C)=O)[C@@H]1OC(C)=O
[27]
  Cmax: 3120 ng/mL
[28]
  AUC(0-t): 15700 ng·h/mL
[5]
  Activity: -3%
[6]
  Activity: -8.5%
[7]
  Activity: -15.7%
[8]
  Activity: 0%
[9]
  Activity: -0.1%
[10]
  Activity: -0.1%
[11]
  Activity: -1.6%
[12]
  Activity: -4.3%
[13]
  Activity: -8.6%
[29]
  bioavailability: 100%
[30]
  solubility: 700 µg/mL (≈ 1340 µM)

## CC(C)C(=O)OCn1c(=O)ccn([C@@H]2O[C@](F)(COC(=O)C(C)C)[C@@H](O)[C@H]2O)c1=O
[25]
  Cmax: 3140 ng/mL
[26]
  AUC(0-t): 20100 ng·h/mL
[5]
  Activity: -2%
[6]
  Activity: -6%
[7]
  Activity: -11.2%
[8]
  Activity: -0.9%
[9]
  Activity: -1.8%
[10]
  Activity: -3%
[11]
  Activity: -1%
[12]
  Activity: -2.4%
[13]
  Activity: -4.1%
[29]
  bioavailability: 66.2%
[31]
  half-life: 6.84 h

## NC(=O)c1nc(F)cnc1O
[32]
  Activity: inactive
[33]
  Activity: inactive
[34]
  Activity: inactive
[35]
  Activity: inactive

## CCC(=O)OC[C@@]1(F)O[C@@H](n2ccc(=O)n(COC(=O)c3cccnc3)c2=O)[C@H](OC(=O)CC)[C@@H]1OC(=O)CC
[5]
  Activity: -1.9%
[6]
  Activity: -5.3%
[7]
  Activity: -9.8%
[8]
  Activity: 0%
[9]
  Activity: -0.1%
[10]
  Activity: -0.1%
[11]
  Activity: -1.9%
[12]
  Activity: -4.9%
[13]
  Activity: -9.7%

## O=C(OCn1c(=O)ccn([C@@H]2O[C@](F)(COC(=O)c3cccnc3)[C@@H](OC(=O)c3cccnc3)[C@H]2OC(=O)c2cccnc2)c1=O)c1cccnc1
[36]
  Cmax: 708 ng/mL
[37]
  AUC(0-t): 9080 ng·h/mL
